Reference: patent publication US12636305B2, “Composition and method of applying same to increase survival of fish following catch-and-release situations” (Dutch Creek Nymphing, LLC, priority 2022, dated 2026)
“And” between values parts separate entries of the source, which are not always exact repeats. Equal values may be shown once.

Tested on: Zebrafish, Danio rerio
Assay: Zebrafish swim exhaustion test (vessel plunger model)
Assay type: in vivo
Set-up: Immediate recovery 20 min later, % Control (change from the control treatment as a percentage of the control treatment): concentration or dose not given beside the values
Conditions: for Immediate recovery 20 min later, % Control (change from the control treatment as a percentage of the control treatment) / Immediate recovery 20 min later, Average: 20 minutes after treatment; for Immediate recovery 20 min later, % Control (change from the control treatment as a percentage of the control treatment): versus water control; for Immediate recovery 20 min later, Average: average of 8 fish; for Immediate recovery 20 min later, Average / Immediate recovery 20 min later (water vortex revolutions per minute when the fish failed to maintain swimming in place): post exhaustion; for Immediate recovery 20 min later (water vortex revolutions per minute when the fish failed to maintain swimming in place): individual fish (8 per treatment), 20 minutes after application of the treatment
Description: This study utilizes a well-recognized vessel plunger model system to determine fish exhaustion during maximal swim performance trials (Usui T, Noble […]. The French press: a repeatable and high-throughput approach to exercising zebrafish (Danio rerio). […] In brief, zebrafish is placed in the top compartment above plunger and evaluated for its ability to swim against circular water currents created by a rotating magnetic stir bar positioned below the plunger. […] Next, the fish is brought to the water surface with the aid of a plunger and the composition is administered to the fish using one of the possible methods of administration. The fish is lowered back into the top compartment, and the individual maximum swimming speed is determined again (post-exhaustion value). This experimental setup allows one to determine the highest tolerated continuous swimming speed associated with control, exhaustion and recovery conditions that models catching, fighting, landing, treating, and releasing fish. […] The experimental methodology was substantially similar to the methods discussed in Usui, et al. (2018). […] Each treatment was administered to eight Zebrafish (n=104 total fish). […] Initial swim strength was measured prior to exhaustion of the fish and subsequent administration of the selected treatment and therefore serves as a baseline. […] After the initial swim strength test, the fish swam to exhaustion (as defined in Usui, et al. […] As anticipated by the Applicant, even post-treatment the fish became exhausted at a lower rpm, but there were significant differences in when each treatment group began to tire.

Molecule	Immediate recovery 20 min later, % Control (change from the control treatment as a percentage of the control treatment) [%]	Immediate recovery 20 min later, Average [rpm]	Immediate recovery 20 min later (water vortex revolutions per minute when the fish failed to maintain swimming in place)
N=C(N)NCCC[C@H](N)C(=O)O [Arginine, arginine]	17	484	520 rpm (2×) and 510 rpm and 550 rpm and 450 rpm and 580 rpm and 460 rpm and 280 rpm
O=C(O)CN(CCN(CC(=O)O)CC(=O)O)CC(=O)O [EDTA, ethylenediaminetetraacetic acid]	8	446	460 rpm (3×) and 430 rpm and 410 rpm (2×) and 420 rpm and 520 rpm
CC(C)C[C@H](N)C(=O)O [Leucine, leucine]	10	455	460 rpm and 400 rpm and 470 rpm (2×) and 510 rpm and 490 rpm and 390 rpm and 450 rpm
C/C=C/C=C/C(=O)[O-].[K+] [Potassium sorbate, potassium sorbate]	5	433	380 rpm and 420 rpm and 440 rpm and 460 rpm (2×) and 390 rpm and 500 rpm and 410 rpm
CC(=O)C(=O)O [Pyruvate, pyruvate]	9	451	420 rpm (2×) and 430 rpm and 450 rpm (2×) and 510 rpm and 520 rpm and 410 rpm
O=C([O-])[O-].O=C([O-])[O-].OO.OO.OO.[Na+].[Na+].[Na+].[Na+] [Sodium percarbonate, sodium percarbonate]	24	514	540 rpm (2×) and 500 rpm and 590 rpm and 530 rpm and 430 rpm and 520 rpm and 460 rpm
salt	14	471	410 rpm and 490 rpm (2×) and 510 rpm (2×) and 480 rpm (2×) and 400 rpm
